Experiments:
[1] = tested on: Blumeria graminis f.sp. hordei; assay: Blumeria graminis test (barley) / protective; type: in vivo; details: 500 ppm active ingredient, protective spray on young barley plants, evaluation 7 days after inoculation; 0% = control, 100% = no infection
Procedure: Blumeria graminis Test (Barley)/Protective
(§1) • Solvent: 49 parts by weight of N,N-dimethylacetamide • Emulsifier: 1 part by weight of alkylaryl polyglycol ether
To produce an appropriate active ingredient formulation, 1 part by weight of active ingredient is mixed with the specified amounts of solvent and emulsifier, and the concentrate is diluted with water to the desired concentration. To test for protective activity, young plants are sprayed with the formulation of active ingredient at the stated application rate. After the spray coating has dried on, the plants are dusted with spores of Blumeria graminis f.sp. hordei. The plants are placed in a greenhouse at a temperature of about 18° C. and a relative air humidity of about 80% to promote the development of mildew pustules. Evaluation follows 7 days after the inoculation. 0% means an efficacy which corresponds to that of the control, whereas an efficacy of 100% means that no infection is observed.

Leptosphaeria nodorum = Leptosphaeria nodorum test (wheat) / protective; type: in vivo; details: 500 ppm active ingredient, protective spray on young wheat plants, evaluation 8 days after inoculation; 0% = control, 100% = no infection
Procedure: Leptosphaeria nodorum Test (Wheat)/Protective
as §1
To produce an appropriate active ingredient formulation, I part by weight of active ingredient is mixed with the specified amounts of solvent and emulsifier, and the concentrate is diluted with water to the desired concentration. To test for protective activity, young plants are sprayed with the formulation of active ingredient at the stated application rate. After the spray coating has dried on, the plants are sprayed with spores with a spore suspension of Leptosphaeria nodorum. The plants remain in an incubation cabin at 20° C. and 100% relative air humidity for 48 hours. The plants are placed in a greenhouse at a temperature of about 22° C. and a relative air humidity of about 80%. Evaluation follows 8 days after the inoculation. 0% means an efficacy which corresponds to that of the control, whereas an efficacy of 100% means that no infection is observed.

[2] = logP by reversed-phase HPLC (EEC Directive 79/831 Annex V.A8); type: physicochemical; details: method [a]: LC-MS, acidic range pH 2.7, 0.1% aqueous formic acid / acetonitrile, linear gradient 10% to 95% acetonitrile
Procedure: The logP values were measured in accordance with EEC Directive 79/831 Annex V.A8 by HPLC (High Performance Liquid Chromatography) using reversed-phase columns (C 18) by the following methods:
[a] The LC-MS determination in the acidic range is effected at pH 2.7 with 0.1% aqueous formic acid and acetonitrile (contains 0.1% formic acid) as eluents; linear gradient from 10% acetonitrile to 95% acetonitrile.

Alternaria solani = assay: Alternaria test (tomato) / protective; type: in vivo; details: 500 ppm active ingredient, protective spray on young tomato plants, evaluation 7 days after inoculation; 0% = control, 100% = no infection
Procedure: Alternaria Test (Tomato)/Protective
(§2) • Solvent: 49 parts by weight of N,N-dimethylformamide • Emulsifier: 1 part by weight of alkylaryl polyglycol ether
To produce an appropriate active ingredient formulation, 1 part by weight of active ingredient is mixed with the specified amounts of solvent and emulsifier, and the concentrate is diluted with water to the desired concentration. To test for protective activity, young tomato plants are sprayed with the active ingredient formulation at the stated application rate. One day after the treatment, the plants are inoculated with a spore suspension of Alternaria solani and are then left to stand at 100% relative humidity and 22° C. for 24 h. Subsequently, the plants are left to stand at 96% relative air humidity and a temperature of 20° C. Evaluation follows 7 days after the […]. 0% means an efficacy which corresponds to that of the control, whereas an efficacy of 100% means that no infection is observed.

Sphaerotheca fuliginea = assay: Sphaerotheca test (cucumber) / protective; type: in vivo; details: 500 ppm active ingredient, protective spray on young cucumber plants, evaluation 7 days after inoculation; 0% = control, 100% = no infection
Procedure: Sphaerotheca Test (Cucumber)/Protective
as §2
To produce an appropriate active ingredient formulation, 1 part by weight of active ingredient is mixed with the specified amounts of solvent and emulsifier, and the concentrate is diluted with water to the desired concentration. To test for protective activity, young cucumber plants are sprayed with the formulation of active ingredient at the stated application rate. 1 day after the treatment, the plants are inoculated with a spore suspension of Sphaerotheca fuliginea. The plants are then placed in a greenhouse at 70% relative air humidity and a temperature of 23° C. Evaluation follows 7 days after the inoculation. 0% means an efficacy which corresponds to that of the control, whereas an efficacy of 100% means that no infection is observed.

| SMILES | efficacy [1] | efficacy (Leptosphaeria nodorum) | chromatographic logP ([2]; reversed-phase C18 HPLC column) | logP ([2]; C18 reversed phase) | efficacy (Alternaria solani) | efficacy (Sphaerotheca fuliginea) |
| --- | --- | --- | --- | --- | --- | --- |
| CC(C)(C)C(O)(CSc1ccc(Br)cc1)c1cncs1 (stereo not shown) [Compound 1, 1-[(4-bromophenyl)sulphanyl]-3,3-dimethyl-2-(1,3-thiazol-5-yl)butan-2-ol] | 89% | 92% |  |  |  |  |
| CC(CF)(CF)C(O)(CSc1ccc(Br)cc1)c1cncs1 (stereo not shown) [Compound 3] | 100% | 100% | 3.27 |  |  |  |
| CC(C)(C)C(O)(CSc1ccc(C(F)(F)F)cc1)c1cncs1 (stereo not shown) [Compound 57] | 80% | 90% |  | log p 3.76^[a] | 100% | 80% |
